From patent EP4483954A1 (Masarykova Univerzita, priority 2023, dated 2025)

Target: T1, Haspin (h) (Homo sapiens, UniProt Q8TF76)
T1 construct: purchased Eurofins (KinaseProfiler)
T1 sequence (Q8TF76 1-798): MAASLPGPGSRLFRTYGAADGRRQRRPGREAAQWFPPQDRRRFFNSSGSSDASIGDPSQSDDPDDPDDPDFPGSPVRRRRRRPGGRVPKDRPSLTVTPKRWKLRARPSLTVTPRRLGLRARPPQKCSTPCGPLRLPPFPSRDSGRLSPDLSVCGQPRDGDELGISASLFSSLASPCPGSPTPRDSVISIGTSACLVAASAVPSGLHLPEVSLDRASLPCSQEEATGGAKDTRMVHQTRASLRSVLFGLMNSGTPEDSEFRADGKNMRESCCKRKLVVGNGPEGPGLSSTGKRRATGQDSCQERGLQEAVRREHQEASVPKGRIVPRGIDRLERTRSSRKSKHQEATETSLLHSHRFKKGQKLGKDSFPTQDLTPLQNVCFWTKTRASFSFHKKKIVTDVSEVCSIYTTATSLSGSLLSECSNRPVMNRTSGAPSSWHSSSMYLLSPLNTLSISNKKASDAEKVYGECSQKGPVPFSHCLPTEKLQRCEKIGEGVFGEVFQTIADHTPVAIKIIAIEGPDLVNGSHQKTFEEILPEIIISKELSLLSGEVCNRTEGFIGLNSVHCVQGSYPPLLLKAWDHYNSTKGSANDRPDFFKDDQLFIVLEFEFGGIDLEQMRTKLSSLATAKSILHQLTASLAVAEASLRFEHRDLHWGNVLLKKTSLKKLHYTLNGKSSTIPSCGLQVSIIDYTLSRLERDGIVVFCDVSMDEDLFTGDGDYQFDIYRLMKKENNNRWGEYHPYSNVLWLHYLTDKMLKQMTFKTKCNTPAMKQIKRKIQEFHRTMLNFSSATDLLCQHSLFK
Assay: radiometric kinase assay (KinaseProfiler, Eurofins), Haspin
Format: biochemical
Details: in vitro radiometric kinase assay, tested at 1 nM to 10 000 nM, no pre-incubation; read-out: inhibitory activities (IC50 values) Haspin
Description: The compounds were profiled in the radiometric assays (KinaseProfiler, Eurofins).
Briefly, kinases were diluted in the buffer shown below prior to addition to the reaction mix: • CDKL3, TAF1L: 20 mM Tris/HCl pH 8.5, 0.2 mM EDTA, 0.1% β-mercaptoethanol, 0.01% Brij-35, 5% glycerol, 1 mg/ml BSA; • Haspin: 15 mM MOPS, 0.75 mM EDTA, 0.0075% Brij-35, 3.75% Glycerol, 150 mM NaCl, 0.1% β-mercaptoethanol, 1 mg/mLBSA; • CDKL4, CLK2, PIM1, TRB2: […], 1 mM EDTA, 0.01% Brij-35, 5% Glycerol, 0.1% β-mercaptoethanol, 1 mg/mL BSA.
All compounds were prepared to 50x final assay concentration in 100% DMSO. This working stock of the compound was added to the assay well as the first component in the reaction, followed by the remaining components as detailed in the general assay protocols below. There was no pre-incubation step between the compound and the kinase prior to initiation of the reaction.
Haspin (h) was incubated with 8 mM MOPS pH 7.0, 0.2 mM EDTA, 500 µM RARTLSFAEPG (SEQ ID NO. 3), 10 mM magnesium acetate and γ-^33P-ATP (specific activity and concentration as required). The reaction was initiated by the addition of the Mg/ATP mix. After incubation for 40 minutes at room temperature, the reaction was stopped by the addition of phosphoric acid to a concentration of 0.5%. An aliquot of the reaction was then spotted onto a filter and washed four times for 4 minutes in 0.425% phosphoric acid and once in methanol prior to drying and scintillation counting.
Kinase activity data were expressed as the percent remaining kinase activity in tested samples compared to the vehicle (DMSO) reactions. The compounds were tested at the following concentrations: 1 nM, 3 nM, 10 nM, 30 nM, 100 nM, 300 nM, 1000 nM, 3000 nM, and 10 000 nM; IC50 values and curve fits were then obtained.

IC50 | SMILES
100 to 499 nM | Cn1ccc(-c2ccc3scc(-c4ccns4)c3n2)n1 [Preparative Example 119, 3-(isothiazol-5-yl)-5-(1-methyl-1H-pyrazol-3-yl)thieno[3,2-b]pyridine]
100 to 499 nM | c1cnnc(Nc2ccc3scc(-c4ccncc4)c3n2)c1 [Preparative Example 113, N-(pyridazin-3-yl)-3-(pyridin-4-yl)thieno[3,2-b]pyridin-5-amine]
500 to 3000 nM | CN(c1ccc2scc(-c3ccncc3)c2n1)c1ccn(C)n1 [Preparative Example 100, N-methyl-N-(1-methyl-1H-pyrazol-3-yl)-3-(pyridin-4-yl)thieno[3,2-b]pyridin-5-amine]
100 to 499 nM | Cn1ccc(Oc2ccc3scc(-c4ccncc4)c3n2)n1 [Preparative Example 110, 5-((1-methyl-1H-pyrazol-3-yl)oxy)-3-(pyridin-4-yl)thieno[3,2-b]pyridine]
3000 to 10000 nM | Cn1ncnc1-c1ccc2scc(-c3ccncc3)c2n1 [Preparative Example 96, 5-(1-methyl-1H-1,2,4-triazol-5-yl)-3-(pyridin-4-yl)thieno[3,2-b]pyridine]
100 to 499 nM | c1cncc(-c2ccc3scc(-c4ccc5ncnn5c4)c3n2)c1 [Preparative Example 131, 3-([1,2,4]triazolo[1,5-a]pyridin-6-yl)-5-(pyridin-3-yl)thieno[3,2-b]pyridine]
100 to 499 nM | Cn1cc(-c2ccc3scc(-c4ccc5n[nH]cc5c4)c3n2)cn1 [Preparative Example 51, 3-(2H-indazol-5-yl)-5-(1-methyl-1H-pyrazol-4-yl)thieno[3,2-b]-pyridine]
100 to 499 nM | c1ccc(-c2ccc3scc(-c4ccncc4)c3n2)nc1 [Preparative Example 111, 5-(pyridin-2-yl)-3-(pyridin-4-yl)thieno[3,2-b]pyridine]
100 to 499 nM | c1nc2ccc(-c3csc4ccc(Nc5cn[nH]c5)nc34)cn2n1 [Preparative Example 134, 3-([1,2,4]triazolo[1,5-a]pyridin-6-yl)-N-(1H-pyrazol-4-yl)thieno[3,2-b]pyridin-5-amine]
